Patent US12612424B2, “HPK1 inhibitors and uses thereof” (Regor Pharmaceuticals, Inc., priority 2019, dated 2026)
Where two headings read alike, the source gives them in different places.

Columns and labels:
JAK3 = biological target: T1, JAK3 (Homo sapiens, UniProt P52333); assay: JAK3 biochemical assay (ADP-GLO Kinase Assay); details: for JAKs/HPK1 IC50 Ratio, B*: first testing facility
T1 construct: purchased Thermo fisher PV3855
Method: Biology Example 4 JAK3 Biochemical Assay
This example used the ADP-GLO™ Kinase Assay to measure the effect of potential HPK1 inhibitor compounds on JAK3 kinase activity. An exemplary experimental setting is described below, though minor adjustments can be made in individual assays.
3. Procedures • 1. Prepare JAK3 kinase buffer • Freshly adding DTT and BSA into Buffer (Final Conc.: 40 mM Tris pH7.5; 20 mM MgCl2, 0.1 mg/ml BSA, 50 μM DTT).
• 2. Compounds Preparation • For tested compounds: compounds were diluted to 1 mM, by mixing 5 μL of 10 mM compound stocks to 45 μL DMSO. The compounds solutions were then serially diluted 3-fold for 10 doses. The top compound concentration was 1 mM (100×), DMSO concentration was 100%. • 50 nL of each of 10 doses of diluted compound were added to 384-well assay plate (Corning #4512) by ECHO. • For positive control, 50 nL of 1 mM reference compound were added to 384-well assay plate (Corning #4512) by ECHO. • For negative control: 50 nL of DMSO was transferred into 384-well assay plate as a negative control. • The assay plate was centrifuged at 1,500 rpm for 1 minute. • 3. Compounds were Transferred by ECHO Following the Layout Below: • Reference and test compounds 1-15: serial 3-fold dilution from 10 μM to 0.508 nM (10 doses); negative control is 0.78 ng JAK3, 4 μM ATP & 0.2 μg/μL poly, 1% DMSO; positive control is the top dose of the reference compound, 0.78 ng JAK3, 0.2 μg/μL Poly(E4Y1), 4 μMATP, 1% DMSO. • 4. Add 2.5 μL/well of 2×JAK3 working solution using pipette (Thermo, 30 μL multi-channel), Centrifuge at 1,500 rpm for 1 minute. • 5. Add 2.5 μL/well of 2×ATP-Poly(E4Y1) working mixture using pipette (Thermo, 30 μL multi-channel), Centrifuge at 1,500 rpm for 1 minute. • 6. Incubate the assay plate at 25° C. for 60 min. • 7. Add 5 μL/well ADP-GLO™ Reagent by BRAVO to stop the kinase reaction and deplete the unconsumed ATP after 1 hour. Centrifuge at 1,500 rpm for 1 minute. Incubate at 25° C. for 40 min. • 8. Add 10 uL of Kinase Detection Reagent by BRAVO to convert ADP to ATP. Centrifuge at 1,500 rpm for 1 minute. Incubate at 25° C. for 40 min. • 9. Record luminescence signal on an Envision plate reader (384-USL). • 10. Process data using XL-fit. Inhibition %=[1-(test well−Negative control)/(positive control−Negative control)]*100%. 5. Data Analysis
The percent (%) inhibition at each concentration of compound is calculated based on and relative to the signal in the Negative and Positive control wells contained within each assay plate. The Negative control wells served as 0% inhibition, and the Positive control wells served as 100% inhibition. The concentrations and % inhibition values for tested compounds are plotted and the concentration of compound required for 50% inhibition (IC50) is determined with a Three-parameter logistic dose response equation. The endpoint value (IC50) for the reference peptide/compound is evaluated in each experiment as a quality control measure. If the endpoint value was within 3-fold of the expected value then the experiment was deemed acceptable.

HPK1 = HPK1 (Homo sapiens, UniProt Q92918); assay: HPK1 biochemical assay (ADP-GLO Kinase Assay)
Description: IC50 values of any compounds can be determined accordingly over a range of inhibitor concentrations. In addition, the inhibitory effect of the compounds can also be assess using a biological assay, to determine the effect of the compounds on cytokine secretion by T cells following TCR and CD28 stimulation.
Biology Example 1 HPK1 Biochemical Assay
This example used the ADP-GLO™ Kinase Assay to measure the effect of potential HPK1 inhibitor compounds on HPK1 kinase activity.
The ADP-GLO™ Kinase Assay (Promega Corp., Madison, WI) measures ADP formed from a kinase reaction. According to the manufacture, the ADP formed in a kinase assay is first converted into ATP, which is then used to generate light in a luciferase reaction. The luminescence generated correlates with kinase activity. An exemplary experimental setting is described below, though minor adjustments can be made in individual assays.
Serial 3-fold dilution of compounds from 10 μM (top concentration) to 0.508 nM (lowest concentration). Positive control is 10 μM Reference+enzyme+substrate. Negative control is 1% DMSO+enzyme+substrate.
• 1. Buffer Preparation • 40 mM Tris pH7.5; 20 mM MgCl2, 0.1 mg/ml BSA, 50 μM DTT Buffer Stock
Add 20 mL 1M Tris and 10 mL 1M MgCl2 to 470 mL ddH2O to get buffer stock, and stock at RT. • 2. Preparing Fresh 1* Assay Buffer
• 3. Compounds Preparation • 1) The compounds were diluted to 1 mM, by mixing 10 μL of 10 mM respective compound stocks with 90 μL of DMSO. • 2) The compounds were then diluted 3-fold for 10 doses (5 μL to 10 μL dilution) by BRAVO. The top compound conc. was 1 mM (100×), DMSO Conc. was 100%. • 3) Transfer 100 nL of each diluted compound sample to 384-well plate (Corning-4512) by ECHO. • 4) Centrifuge the plate at 1,500 rpm for 1 minute. • 4. Preparation of 2×ATP-MBP Mixture: • 20 μM ATP, 0.2 μg/μL MBP in Kinase Buffer (final concentration: 10 μM ATP, 0.1 MBP)
• 5. Preparation of 2×HPK1 working solution with assay buffer. • HPK1 final concentration was 0.6 ng/μL. […] Incubate at 25° C. for 40 min. • 11. Record luminescence signal on an Envision plate reader (384-CTG). 5. Data Analysis
The percent (%) inhibition at each concentration of compound is calculated based on and relative to the signal in the High and Low control wells contained within each assay plate. […] The concentrations and % inhibition values for tested compounds were plotted and the concentration of compound required for 50% inhibition (IC50) was determined with a Three-parameter logistic dose response equation. The endpoint value (IC50) for the reference peptide/compound was evaluated in each experiment as a quality control measure. If the endpoint value was within 3-fold of the expected value, then the experiment was deemed acceptable.

[1] = B*: testing performed in a first testing facility, read-out: JAK3 IC50 (nM) Relative, B*
[2] = ratio of JAK3 IC50 to HPK1 IC50
[3] = B*: testing performed in a first testing facility, read-out: HPK1 IC50 (nM) Relative, B*

T1 sequence (P52333 781-1124 limits assumed): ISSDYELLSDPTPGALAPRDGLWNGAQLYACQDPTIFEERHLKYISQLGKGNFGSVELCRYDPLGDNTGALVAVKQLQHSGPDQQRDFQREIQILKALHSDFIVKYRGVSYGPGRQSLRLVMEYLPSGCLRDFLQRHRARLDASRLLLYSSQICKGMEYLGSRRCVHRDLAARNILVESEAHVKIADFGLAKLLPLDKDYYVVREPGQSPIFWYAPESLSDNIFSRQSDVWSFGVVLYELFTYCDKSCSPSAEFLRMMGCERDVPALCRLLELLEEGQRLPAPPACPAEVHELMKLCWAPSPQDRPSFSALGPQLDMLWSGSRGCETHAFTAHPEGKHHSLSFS
HPK1, sequence (Q92918 whole entry): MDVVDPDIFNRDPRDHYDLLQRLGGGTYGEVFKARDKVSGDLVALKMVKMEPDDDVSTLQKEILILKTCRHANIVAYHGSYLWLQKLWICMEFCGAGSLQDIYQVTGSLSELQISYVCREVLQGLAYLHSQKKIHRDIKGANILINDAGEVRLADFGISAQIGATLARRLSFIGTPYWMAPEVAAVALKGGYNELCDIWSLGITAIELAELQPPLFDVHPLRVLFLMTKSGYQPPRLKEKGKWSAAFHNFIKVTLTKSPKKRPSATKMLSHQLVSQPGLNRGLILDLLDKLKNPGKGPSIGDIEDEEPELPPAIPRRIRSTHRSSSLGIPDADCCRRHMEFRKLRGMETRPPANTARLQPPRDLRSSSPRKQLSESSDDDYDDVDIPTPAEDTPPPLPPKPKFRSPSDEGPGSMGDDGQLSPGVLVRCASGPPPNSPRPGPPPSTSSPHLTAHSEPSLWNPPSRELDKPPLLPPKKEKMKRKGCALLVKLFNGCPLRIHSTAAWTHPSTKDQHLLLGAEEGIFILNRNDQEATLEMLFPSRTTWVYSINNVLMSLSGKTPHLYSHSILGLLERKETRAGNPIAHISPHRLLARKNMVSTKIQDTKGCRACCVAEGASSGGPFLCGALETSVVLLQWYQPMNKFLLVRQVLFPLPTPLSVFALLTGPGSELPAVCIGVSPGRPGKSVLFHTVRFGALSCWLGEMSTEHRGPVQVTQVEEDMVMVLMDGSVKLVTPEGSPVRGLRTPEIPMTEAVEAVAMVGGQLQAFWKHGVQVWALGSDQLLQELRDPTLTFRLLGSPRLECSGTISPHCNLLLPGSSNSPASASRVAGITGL

Row | SMILES | IC50 (JAK3; [1]) [nM] | JAKs/HPK1 IC50 Ratio, B* (JAK3; [2]) | IC50 (HPK1; [3]) [nM] | IC50 (JAK3; N*: testing performed in a second testing facility, read-out: JAK3 IC50 (nM) Relative, N*) [nM] | JAKs/HPK1 IC50 Ratio, N* (JAK3; ratio of JAK3 IC50 to HPK1 IC50, second testing facility) | IC50 (HPK1; N*: testing performed in a second testing facility, read-out: HPK1 IC50 (nM) Relative, N*) [nM]
1 | COc1cc2c(cc1Nc1ncc3cc(C(=O)O)n(-c4ccccc4)c3n1)CN(C)CC2 [Example 165, 2-((6-Methoxy-2-methyl-1,2,3,4-tetrahydroisoquinolin-7-yl)amino)-7-phenyl-7H-pyrrolo[2,3-d]pyrimidine-6-carboxylic acid] | > 1000 | 421 | ≤ 100 | – | – | –
2 | COc1cc2c(cc1Nc1ncc(Cl)c(N3CCc4cc(Br)ccc43)n1)CN(C)CC2 [Example 85, N-(4-(5-bromoindolin-1-yl)-5-chloropyrimidin-2-yl)-6-methoxy-2-methyl-1,2,3,4-tetrahydroisoquinolin-7-amine] | > 1000 | 178 | ≤ 100 | – | – | –
3 | CCc1c[nH]c2ncc(-c3ccc(N)c(P(C)(C)=O)n3)cc12 [Example 75, (3-Amino-6-(3-ethyl-1H-pyrrolo[2,3-b]pyridin-5-yl)pyridin-2-yl)dimethylphosphine oxide] | > 1000 | 59 | ≤ 100 | – | – | –
4 | COc1cc2c(cc1Nc1ncc(Cl)c(-c3cncc4ccccc34)n1)CN(C)CC2 [Example 48, N-(5-chloro-4-(isoquinolin-4-yl)pyrimidin-2-yl)-6-methoxy-2-methyl-1,2,3,4-tetrahydroisoquinolin-7-amine] | > 1000 | >179 | ≤ 100 | – | – | –
5 | COc1cc2c(cc1Nc1ncc3ccn(-c4ccccc4P(C)(C)=O)c3n1)CN(C)CC2 [Example 39, (2-(2-((6-Methoxy-2-methyl-1,2,3,4-tetrahydroisoquinolin-7-yl)amino)-7H-pyrrolo[2,3-d]pyrimidin-7-yl)phenyl)dimethylphosphine oxide] | > 1000 | >18 | 500 to 1000 | – | – | –
6 | CCc1c[nH]c2ncc(-c3ccc(CF)c(P(C)(C)=O)c3)cc12 [Example 74, (5-(3-Ethyl-1H-pyrrolo[2,3-b]pyridin-5-yl)-2-(fluoromethyl)phenyl)dimethylphosphine oxide] | > 1000 | 19 | 100 to 500 | – | – | –
7 | CCc1c[nH]c2ncc(-c3ccc(C(N)=O)c(P(C)(C)=O)c3)cc12 [Example 67, 2-(Dimethylphosphoryl)-4-(3-ethyl-1H-pyrrolo[2,3-b]pyridin-5-yl)benzamide] | > 1000 | 10 | 100 to 500 | – | – | –
8 | CCc1c[nH]c2ncc(-c3ccc(C(F)(F)F)c(P(C)(C)=O)c3)cc12 [Example 78, (5-(3-Ethyl-1H-pyrrolo[2,3-b]pyridin-5-yl)-2-(trifluoromethyl)phenyl)dimethylphosphine oxide] | > 1000 | >15 | 500 to 1000 | – | – | –

Continued, values first:

Row | IC50 (JAK3; [1]) [nM] | JAKs/HPK1 IC50 Ratio, B* (JAK3; [2]) | IC50 (HPK1; [3]) [nM] | IC50 (JAK3; N*: testing performed in a second testing facility, read-out: JAK3 IC50 (nM) Relative, N*) [nM] | JAKs/HPK1 IC50 Ratio, N* (JAK3; ratio of JAK3 IC50 to HPK1 IC50, second testing facility) | IC50 (HPK1; N*: testing performed in a second testing facility, read-out: HPK1 IC50 (nM) Relative, N*) [nM] | SMILES
9 | 500 to 1000 | 22 | ≤ 100 | – | – | – | CCc1c[nH]c2ncc(-c3cc(N)cc(P(C)(C)=O)c3)cc12 [Example 57, (3-Amino-5-(3-ethyl-1H-pyrrolo[2,3-b]pyridin-5-yl)phenyl)dimethylphosphine oxide]
10 | > 1000 | 250 | ≤ 100 | – | – | – | COc1cc2c(cc1Nc1ncc(Cl)c(-n3cc(C(C(=O)O)C(F)(F)F)c4ccccc43)n1)CN(C)CC2 (stereo not drawn) [Example 144]
11 | > 1000 | 944 | ≤ 100 | – | – | – | COc1cc2c(cc1Nc1ncc(Cl)c(N3CCc4c(OC)cccc43)n1)CN(C)CC2 [Example 89, N-(5-chloro-4-(4-methoxyindolin-1-yl)pyrimidin-2-yl)-6-methoxy-2-methyl-1,2,3,4-tetrahydroisoquinolin-7-amine]
12 | > 1000 | 54 | ≤ 100 | – | – | – | CCc1c[nH]c2ncc(-c3ccc(C)c(P(C)(C)=O)c3F)cc12 [Example 62, (3-(3-Ethyl-1H-pyrrolo[2,3-b]pyridin-5-yl)-2-fluoro-6-methylphenyl)dimethylphosphine oxide]
13 | > 1000 | 51 | ≤ 100 | – | – | – | CCc1c[nH]c2ncc(-c3ccc(F)c(P(C)(C)=O)c3)cc12 [Example 51, (5-(3-Ethyl-1H-pyrrolo[2,3-b]pyridin-5-yl)-2-fluorophenyl)dimethylphosphine oxide]
14 | > 1000 | 15 | 100 to 500 | – | – | – | CCc1c[nH]c2ncc(-c3ccc(C(F)F)c(P(C)(C)=O)c3)cc12 [Example 61, (2-(Difluoromethyl)-5-(3-ethyl-1H-pyrrolo[2,3-b]pyridin-5-yl)phenyl)dimethylphosphine oxide]
15 | 500 to 1000 | 5 | 100 to 500 | – | – | – | CCc1c[nH]c2ncc(-c3ccc(CO)c(P(C)(C)=O)c3)cc12 [Example 73, (5-(3-Ethyl-1H-pyrrolo[2,3-b]pyridin-5-yl)-2-(hydroxymethyl)phenyl)dimethylphosphine oxide]
16 | 500 to 1000 | 70 | ≤ 100 | 500 to 1000 | 50 | ≤ 100 | CCc1c[nH]c2ncc(-c3ccc(N)c(P(C)(C)=O)c3)cc12 [Example 70, (2-Amino-5-(3-ethyl-1H-pyrrolo[2,3-b]pyridin-5-yl)phenyl)dimethylphosphine oxide]
17 | ≤ 100 | 4 | ≤ 100 | – | – | – | COc1cc2c(cc1Nc1ncc(Cl)c(N3CC(C)(C(=O)O)c4ccccc43)n1)CNCC2 (stereo not drawn) [Example 127, 1-(5-Chloro-2-((6-methoxy-1,2,3,4-tetrahydroisoquinolin-7-yl)amino)pyrimidin-4-yl)-3-methylindoline-3-carboxylic acid]
